Measurements: the NIST ThermoML archive (doi:10.1021/je0496140)
Numbers after ± are expanded uncertainties.

Experiment: xn = mol fraction of the nth substance listed
Details: 101.33 kPa, Liquid

CCCCCl [1-chlorobutane] + CCCCO
Details	mass density [kg/m3]	viscosity [mPa·s]
288.15 K, x2 = 0.062	886.96 ± 0.37	–
288.15 K, x2 = 0.0949	–	0.509 ± 0.007
288.15 K, x2 = 0.1027	883.98 ± 0.37	–
288.15 K, x2 = 0.1383	881.38 ± 0.37	–
288.15 K, x2 = 0.1964	–	0.57 ± 0.008
288.15 K, x2 = 0.2032	876.67 ± 0.37	–
288.15 K, x2 = 0.2597	872.57 ± 0.37	–
288.15 K, x2 = 0.2859	870.67 ± 0.37	–
288.15 K, x2 = 0.2961	–	0.655 ± 0.009
288.15 K, x2 = 0.3764	864.06 ± 0.38	–
288.15 K, x2 = 0.3949	–	0.774 ± 0.01
288.15 K, x2 = 0.3967	862.58 ± 0.38	–
288.15 K, x2 = 0.4541	858.3 ± 0.38	–
288.15 K, x2 = 0.4822	856.17 ± 0.38	–
288.15 K, x2 = 0.4941	–	0.94 ± 0.012
288.15 K, x2 = 0.5076	854.25 ± 0.38	–
288.15 K, x2 = 0.5466	851.25 ± 0.39	–
288.15 K, x2 = 0.5818	848.53 ± 0.39	–
288.15 K, x2 = 0.5915	–	1.175 ± 0.014
288.15 K, x2 = 0.6332	844.49 ± 0.39	–
288.15 K, x2 = 0.6747	841.19 ± 0.39	–
288.15 K, x2 = 0.6954	–	1.503 ± 0.018
288.15 K, x2 = 0.7342	836.4 ± 0.4	–
288.15 K, x2 = 0.7698	833.49 ± 0.4	–
288.15 K, x2 = 0.794	–	1.934 ± 0.023
288.15 K, x2 = 0.8509	826.62 ± 0.41	–
288.15 K, x2 = 0.892	–	2.529 ± 0.029
288.15 K, x2 = 0.9022	822.13 ± 0.41	–
288.15 K, x2 = 0.9582	817.04 ± 0.42	–
298.15 K, x2 = 0.0949	–	0.452 ± 0.007
298.15 K, x2 = 0.1964	–	0.504 ± 0.007
298.15 K, x2 = 0.2961	–	0.57 ± 0.008
298.15 K, x2 = 0.3949	–	0.661 ± 0.009
298.15 K, x2 = 0.4941	–	0.788 ± 0.01
298.15 K, x2 = 0.5915	–	0.955 ± 0.012
298.15 K, x2 = 0.6954	–	1.204 ± 0.015
298.15 K, x2 = 0.794	–	1.525 ± 0.018
298.15 K, x2 = 0.892	–	1.955 ± 0.023
308.15 K, x2 = 0.0949	–	0.407 ± 0.006
308.15 K, x2 = 0.1056	861.88 ± 0.4	–
308.15 K, x2 = 0.1964	–	0.448 ± 0.006
308.15 K, x2 = 0.1979	855.62 ± 0.4	–
308.15 K, x2 = 0.2842	849.82 ± 0.4	–
308.15 K, x2 = 0.2961	–	0.501 ± 0.007
308.15 K, x2 = 0.3908	842.67 ± 0.4	–
308.15 K, x2 = 0.3949	–	0.576 ± 0.008
308.15 K, x2 = 0.4941	–	0.67 ± 0.009
308.15 K, x2 = 0.4964	835.5 ± 0.41	–
308.15 K, x2 = 0.5913	828.95 ± 0.41	–
308.15 K, x2 = 0.5915	–	0.797 ± 0.01
308.15 K, x2 = 0.6908	821.85 ± 0.42	–
308.15 K, x2 = 0.6954	–	0.984 ± 0.012
308.15 K, x2 = 0.7917	814.48 ± 0.43	–
308.15 K, x2 = 0.794	–	1.226 ± 0.015
308.15 K, x2 = 0.892	–	1.547 ± 0.018
308.15 K, x2 = 0.9003	806.19 ± 0.44	–
318.15 K, x2 = 0.0612	853.78 ± 0.41	–
318.15 K, x2 = 0.0913	851.66 ± 0.41	–
318.15 K, x2 = 0.0949	–	0.367 ± 0.006
318.15 K, x2 = 0.1849	845.48 ± 0.41	–
318.15 K, x2 = 0.1964	–	0.401 ± 0.006
318.15 K, x2 = 0.2759	839.66 ± 0.41	–
318.15 K, x2 = 0.2961	–	0.444 ± 0.006
318.15 K, x2 = 0.3836	832.82 ± 0.42	–
318.15 K, x2 = 0.3949	–	0.503 ± 0.007
318.15 K, x2 = 0.4858	826.26 ± 0.42	–
318.15 K, x2 = 0.4941	–	0.577 ± 0.008
318.15 K, x2 = 0.5859	819.71 ± 0.43	–
318.15 K, x2 = 0.5915	–	0.674 ± 0.009
318.15 K, x2 = 0.6868	812.99 ± 0.43	–
318.15 K, x2 = 0.6954	–	0.816 ± 0.01
318.15 K, x2 = 0.7868	806.09 ± 0.44	–
318.15 K, x2 = 0.794	–	0.993 ± 0.012
318.15 K, x2 = 0.8906	798.56 ± 0.45	–
318.15 K, x2 = 0.892	–	1.238 ± 0.015

CCCCCl [1-chlorobutane] + CCC(C)O
Details	mass density [kg/m3]	viscosity [mPa·s]
288.15 K, x2 = 0.05	887.1 ± 0.38	–
288.15 K, x2 = 0.0965	–	0.496 ± 0.007
288.15 K, x2 = 0.1177	881.38 ± 0.4	–
288.15 K, x2 = 0.1435	879.24 ± 0.4	–
288.15 K, x2 = 0.1962	874.99 ± 0.41	–
288.15 K, x2 = 0.1973	–	0.542 ± 0.008
288.15 K, x2 = 0.2227	872.88 ± 0.42	–
288.15 K, x2 = 0.2962	–	0.601 ± 0.008
288.15 K, x2 = 0.34	863.63 ± 0.45	–
288.15 K, x2 = 0.3934	–	0.688 ± 0.009
288.15 K, x2 = 0.4058	858.45 ± 0.46	–
288.15 K, x2 = 0.4104	858.09 ± 0.46	–
288.15 K, x2 = 0.4917	–	0.805 ± 0.011
288.15 K, x2 = 0.4986	851.12 ± 0.48	–
288.15 K, x2 = 0.5241	849.12 ± 0.49	–
288.15 K, x2 = 0.5527	846.87 ± 0.49	–
288.15 K, x2 = 0.5923	–	0.995 ± 0.013
288.15 K, x2 = 0.6114	842.23 ± 0.51	–
288.15 K, x2 = 0.6634	838.14 ± 0.52	–
288.15 K, x2 = 0.6919	–	1.286 ± 0.016
288.15 K, x2 = 0.7388	832.24 ± 0.53	–
288.15 K, x2 = 0.7931	–	1.764 ± 0.022
288.15 K, x2 = 0.7984	827.45 ± 0.54	–
288.15 K, x2 = 0.8286	824.99 ± 0.55	–
288.15 K, x2 = 0.884	820.5 ± 0.56	–
288.15 K, x2 = 0.8933	–	2.648 ± 0.033
288.15 K, x2 = 0.9367	816.07 ± 0.57	–
298.15 K, x2 = 0.0965	–	0.444 ± 0.006
298.15 K, x2 = 0.1973	–	0.478 ± 0.007
298.15 K, x2 = 0.2962	–	0.524 ± 0.007
298.15 K, x2 = 0.3934	–	0.587 ± 0.008
298.15 K, x2 = 0.4917	–	0.675 ± 0.009
298.15 K, x2 = 0.5923	–	0.811 ± 0.011
298.15 K, x2 = 0.6919	–	1.011 ± 0.013
298.15 K, x2 = 0.7931	–	1.334 ± 0.017
298.15 K, x2 = 0.8933	–	1.901 ± 0.024
308.15 K, x2 = 0.0965	–	0.399 ± 0.006
308.15 K, x2 = 0.1007	860.49 ± 0.42	–
308.15 K, x2 = 0.1941	853.08 ± 0.44	–
308.15 K, x2 = 0.1973	–	0.426 ± 0.006
308.15 K, x2 = 0.2775	846.72 ± 0.46	–
308.15 K, x2 = 0.2962	–	0.462 ± 0.007
308.15 K, x2 = 0.3881	838.47 ± 0.48	–
308.15 K, x2 = 0.3934	–	0.51 ± 0.007
308.15 K, x2 = 0.4876	831.15 ± 0.5	–
308.15 K, x2 = 0.4917	–	0.577 ± 0.008
308.15 K, x2 = 0.5897	823.73 ± 0.52	–
308.15 K, x2 = 0.5923	–	0.676 ± 0.009
308.15 K, x2 = 0.6919	–	0.818 ± 0.011
308.15 K, x2 = 0.6927	816.37 ± 0.54	–
308.15 K, x2 = 0.7931	–	1.034 ± 0.014
308.15 K, x2 = 0.795	808.99 ± 0.56	–
308.15 K, x2 = 0.8933	–	1.419 ± 0.018
308.15 K, x2 = 0.8963	801.67 ± 0.58	–
318.15 K, x2 = 0.0864	850.35 ± 0.43	–
318.15 K, x2 = 0.0965	–	0.362 ± 0.006
318.15 K, x2 = 0.1906	842.1 ± 0.45	–
318.15 K, x2 = 0.1973	–	0.382 ± 0.006
318.15 K, x2 = 0.2732	835.88 ± 0.47	–
318.15 K, x2 = 0.2962	–	0.41 ± 0.006
318.15 K, x2 = 0.382	828 ± 0.49	–
318.15 K, x2 = 0.3934	–	0.45 ± 0.007
318.15 K, x2 = 0.4862	820.61 ± 0.51	–
318.15 K, x2 = 0.4917	–	0.498 ± 0.007
318.15 K, x2 = 0.5852	813.65 ± 0.53	–
318.15 K, x2 = 0.5923	–	0.571 ± 0.008
318.15 K, x2 = 0.6823	806.95 ± 0.55	–
318.15 K, x2 = 0.6919	–	0.676 ± 0.009
318.15 K, x2 = 0.7865	799.78 ± 0.57	–
318.15 K, x2 = 0.7931	–	0.825 ± 0.011
318.15 K, x2 = 0.8928	792.59 ± 0.59	–
318.15 K, x2 = 0.8933	–	1.072 ± 0.014
